Source: publication PMC3495945, “Org 214007-0: A Novel Non-Steroidal Selective Glucocorticoid Receptor Modulator with Full Anti-Inflammatory Properties and Improved Therapeutic Index” (PLoS ONE, 2012)

What was measured:
GR = target: T1, GR (Homo sapiens, UniProt P04150); assay: U2OS GR.G9 IFNγ/TNFα-induced MCP-1 release (repression); assay type: cell-based; parameters: expressed in transfected cells; host or cells: U2OS (U2OS GR.G9); settings: for Max. eff., repression of MCP-1 release: IFNγ/TNFα, relative to prednisolone (100%)
T1 sequence (P04150 1-777): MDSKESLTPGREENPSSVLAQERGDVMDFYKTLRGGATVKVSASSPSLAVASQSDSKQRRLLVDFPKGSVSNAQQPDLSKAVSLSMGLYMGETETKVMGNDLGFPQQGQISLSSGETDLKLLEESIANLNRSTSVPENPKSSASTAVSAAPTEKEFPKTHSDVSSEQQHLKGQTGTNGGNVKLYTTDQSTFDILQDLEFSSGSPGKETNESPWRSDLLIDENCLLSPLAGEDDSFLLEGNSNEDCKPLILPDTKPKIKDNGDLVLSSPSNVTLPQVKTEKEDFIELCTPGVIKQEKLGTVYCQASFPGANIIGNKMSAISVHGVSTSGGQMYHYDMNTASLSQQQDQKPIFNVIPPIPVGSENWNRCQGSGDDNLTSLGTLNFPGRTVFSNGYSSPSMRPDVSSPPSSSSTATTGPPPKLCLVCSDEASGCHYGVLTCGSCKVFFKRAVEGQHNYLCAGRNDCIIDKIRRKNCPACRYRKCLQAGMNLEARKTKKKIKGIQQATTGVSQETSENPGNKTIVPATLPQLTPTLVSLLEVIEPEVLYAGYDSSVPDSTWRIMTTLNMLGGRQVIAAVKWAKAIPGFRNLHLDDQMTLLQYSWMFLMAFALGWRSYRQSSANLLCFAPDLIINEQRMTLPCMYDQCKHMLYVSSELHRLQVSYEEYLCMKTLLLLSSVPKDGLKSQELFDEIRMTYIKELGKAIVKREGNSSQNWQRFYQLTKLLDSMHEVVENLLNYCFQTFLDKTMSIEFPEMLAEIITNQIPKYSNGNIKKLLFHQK
Protocol: To determine the repressive activity of GR ligands, cell line U2OS GR.G9, the human osteoblastic cell line U2OS, stably transfected with human GR, was used. Cells (10^4 cells/well) were incubated in 384-wells plates, in the presence of 50 ng/ml TNFα (R&D systems)/100 ng/ml IFNγ (Peprotech) and compound, for 18 hours. Hereafter, a mixture of two different antibodies to hMCP-1, one Eu-labeled and one APC-labeled, were added. One hour later the time-resolved fluorometric resonance energy transfer (TR-FRET) signal was measured. (for more detailed information see Supportive Information) (SI text).
U2OS GR.G9 cells (10^4 cells/well) in Dulbecco's MEM / HAM F12 medium supplemented with 5% charcoal treated bovine calf serum (Hyclone) (v/v) and Penicillin (10 U/ml) -Streptomycin (10 μg/ml) were incubated in 384-wells plates, in the presence of 50 ng/ml TNFα (R&D systems) / 100 ng/ml IFNγ (Peprotech) and compound, for 18 hours in a humidified atmosphere at 37°C under 6.5% CO2. Hereafter, a mixture of 2.2 nM anti-hMCP-1 labeled with fluorescent donor Europium (Eu) and 16.6 nM anti-hMCP-1 labeled with fluorescent acceptor Allophycocyanin (APC) was added to each well and left at roomtemperature for 1 hour. Finally, the time-resolved fluorometric resonance energy transfer (TR-FRET) signal was measured with the Victor^2TM V, 1420 Multilabel Counter (Wallac). Using 4-parameter curve fitting, IC50 values for the compounds were determined.

THP-1 cells = assay: Gene expression profiling (microarray) in THP-1 cells; assay type: cell-based, human; settings: THP-1, 1 μM, 6 hours, top 25 genes, prednisolone set at 100%; for Max. eff., mean repression of genes, microarray: IFNγ/TNFα; for Max. eff., mean induction of genes, microarray: non-stimulated
Protocol: THP-1 cells were incubated with glucocorticoid in the presence of either DMSO (control) or IFNγ/TNFα (220 ng/ml/375 ng/ml). After 6 hours total RNA was isolated and further processed for microarray hybridization as described for the HepG2 cells. The data from all microarray experiments have been deposited in the NCBI Gene Expression Omnibus (GEO) under accession number (identifier will be included in proof). […] Expression of FKBP51, MCP-1, IL-6 and IL-8 protein was measured by specific […]; #A[…] [MCP-1], #A[…] [IL-6] and #A[…] [IL-8]) according to the manufacturer manual. […] Expression of FKBP51, DUSP1 and GILZ was measured by Q-PCR according to the same procedure as described for the HepG2 cells. In this case the following primer-pairs were used: for GAPDH: [NT] and [NT]; for FKBP51: [NT] and [NT]; for DUSP1: [NT] and [NT]; for GILZ: [NT] and [NT]. For the evaluation of protein expression, cells were incubated overnight with a whole dose range of compounds. Supernatants were collected to determine cytokine levels and cell lysates were generated by repeated freeze-thaw cycles to measure expression of FKBP51 protein. Expression of FKBP51, MCP-1, IL-6 and IL-8 was measured by specific […]; #A[…] [MCP-1], #A[…] [IL-6] and #A[…] [IL-8]) according to the manufacturer manual. […] Samples were incubated for 60 min at 23 C. […] Plates were measured using an EnVision-Alpha Reader.

IC50 (GR; IFNγ (100 ng/ml)/TNFα (50 ng/ml), 18 hours) [nM]	Max. eff., repression of MCP-1 release (GR; listed as Org)	SMILES	Max. eff., repression of MCP-1 release (GR)	Max. eff., mean repression of genes, microarray (THP-1 cells) [%]	Max. eff., mean induction of genes, microarray (THP-1 cells; listed as Org) [%]	Max. eff., mean induction of genes, microarray (THP-1 cells) [%]
0.36	81 (±16) %	Cc1nnsc1C(=O)N[C@H]1CCN2c3ccc(C#N)cc3[C@@H](C)c3ccccc3[C@@H]2C1 [Org 214007-0]	81%	48.3	18.9	–
–	–	C[C@]12C=CC(=O)C=C1CC[C@@H]1[C@@H]2[C@@H](O)C[C@@]2(C)[C@H]1CC[C@]2(O)C(=O)CO [prednisolone, reference compound]	100 (±9.6) %	100	–	100
